Assay results reported in patent US20220211860A1, “PEPTIDE DERIVATIVES AND CONJUGATES THEREOF FOR TREATING CANCER” (priority 2019, published 2022).

Legend:
LHRH-R = biological target: T1, LHRH-R (Homo sapiens, UniProt P30968); experiment: Duolink proximity ligation assay (PLA) in MDA-MB-231; type: binding
T1 construct: endogenous in cells; host or cells: MDA-MB-231
T1 sequence (P30968 1-328): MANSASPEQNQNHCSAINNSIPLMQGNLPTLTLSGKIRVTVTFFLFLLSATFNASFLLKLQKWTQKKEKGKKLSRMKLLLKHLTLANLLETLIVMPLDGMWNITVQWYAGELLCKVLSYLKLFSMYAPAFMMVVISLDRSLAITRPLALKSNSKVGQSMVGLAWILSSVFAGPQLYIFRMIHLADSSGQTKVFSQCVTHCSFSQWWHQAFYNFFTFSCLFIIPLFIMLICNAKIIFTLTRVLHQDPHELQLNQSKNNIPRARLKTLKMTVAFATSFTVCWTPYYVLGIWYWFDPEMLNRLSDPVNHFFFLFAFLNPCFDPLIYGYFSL
Protocol: FIG. 6: Proximity ligation assay was used to show the protein-protein interaction between LHRH-R and LHRH in MDA-MB-231 (TNBC cell model) treated with LD5-me-vc-PABC-MMAE (1 μM) compared to negative control (PBS). Stained nucleus (DAPI blue) and PLA signal (TexasRed) were detected by LEICA SPE2 confocal LSM.
The binding affinity of the LD5-me-vc-PABC-MMAE conjugate to LHRH receptors was investigated by DuoLink assay.
Proximity ligation assay (PLA) was used to determine the interaction between LHRH-R and LHRH in LD5-mc-vc-PABC-MMAE treated cells. Duolink® Proximity Ligation Assay (PLA) allows in situ detection of endogenous proteins, protein modifications, and protein interactions with high specificity and sensitivity. Protein targets can be readily detected and localized with single molecule resolution in unmodified cells and tissues. Typically, two primary antibodies raised in different species are used to detect two unique protein targets. PLA reagents were added to the fixed MDA-MB-231 cells after incubating these cells with the primary antibody specific for LHRH-R and LHRH.

MDA-MB-231 [1] = experiment: In vitro uptake in TNBC cells versus normal breast cells (confocal LSM); type: cell-based, human; conditions: 1 μM, 18 h; MDA-MB-231 compared to normal breast cells (MCF-10A and HMEC)
Protocol: FIGS. 7A and 7B: In vitro uptake study of LD5-me-vc-PABC-MMAE in TNBC cell line and normal breast cells. (A) MDA-MB-231 as a TNBC cell model, MCF-10A and HMEC as normal breast cells were treated with 1 μM of LD5-me-vc-PABC-MMAE (LM) for 18 h. LM was stained using monoclonal primary antibody specific for LHRH and secondary antibody conjugated with Rhodamine and detected by LEICA SPE2 confocal LSM. (B) The LM signal intensity was measured by Fiji J software in normal breast cells (HMEC and MCF-10A) and TNBC cell model (MDA-MB-231). […] The signal intensity in these cell lines were assessed by one-way ANOVA followed by Tukey's multiple comparisons test (****p<0.0001). Error bars are standard deviations (STDV), n=8 (3 independent repeats).
The uptake of LD5-me-vc-PABC-MMAE by TNBC cells was examined using the TNBC cell line (MDA-MB-231) which overexpresses LHRH-R. The uptake was compared with normal breast cells (LHRH-R negative control). LD5-me-vc-PABC-MMAE was incubated with […] for 18 h, and intracellular uptake of the conjugate was monitored using confocal LSM (FIG. 7A).
This was supported by quantitative comparisons of the intracellular uptake of LD5-mc-vc-PABC-MMAE in LHRH-R positive and negative cells (FIG. 7B).

MDA-MB-231 [2] = experiment: Uptake after silencing LHRH-R gene in MDA-MB-231; type: cell-based, human; conditions: MDA-MB-231, LHRH-R siRNA, 1 μM, 18 h
Protocol: FIGS. 10A and 10B: Uptake of LD5-me-vc-PABC-MMAE (LM) after silencing LHRH-R in MDA-MB-231 cells. The cells were treated with LHRH-R siRNA and co-transfected with fluorescent labelled siRNA negative control as transfection efficiency signal (FAM-transfection control). LHRH-R negative control refers to MDA-MB-231 cells that were not transfected with LHRH-R siRNA and FAM-transfection control. (A) Silenced LHRH-R cells and negative control cells were treated with LM (1 μM) for 18 h and LM signal was detected by immunocytochemistry with specific LHRH binding of primary antibody labelled by Rhodamine-conjugated secondary antibody. Immunocytochemical images were captured by LEICA SPE2 confocal LSM. (B) The LM signal intensity in both silenced LHRH-R and negative control was measured by Fiji J software. […] The data was analysed by unpaired t-test with Welch's correction (**** p<0.0001). Error bars are standard deviations (STDV), n=8 (3 independent repeats).
To further examine the role of LHRH-R in the uptake of LD5-me-vc-PABC-MMAE, LHRH-R expression was blocked by silencing their gene in MDA-MB-231 (TNBC cell model). This study was performed by co-transfection of siRNAs (RNAi-Mate transfection reagent and siRNA, GNRHR-homo-2242, GNRHR-homo-2701, and scrambled RNA were from GenePharma) and a fluorescently labelled negative control siRNA (FAM transfection efficiency control was from GenePharma).

[3] = In vitro metabolic stability (release of free MMAE, LC/MS), human plasma; type: in vitro ADME; conditions: 1 μM, 37° C., 10 days
Protocol: (§1) FIG. 11: Stability of LHRHD-(mc-vc-PABC)-MMAE (i.e. LD5-mc-vc-PABC-MMAE) in human plasma, mouse plasma, and cell culture media (c-media). The stability was measured based on the presence of free MMAE detected in the samples by LC-MS at each time point relative to time 0. Error Bars are standard deviations (STDV), p>0.05 and n=9 (mean is calculated from samples in triplicate in 3 independent experiments).
(§2) The metabolic stability of LD5-(mc-vc-PABC)-MMAE was investigated in cell culture media (c-media), human and mouse plasma. An LC/MS method was developed to detect both free MMAE and the presence of any degraded species from the whole construct, LD5-(mc-vc-PABC)-MMAE. To evaluate the stability of the valine-citrulline linkage, LD5-(mc-vc-PABC)-MMAE at 1 μM was incubated in c-media, human and mouse plasma at 37° C. for a period of 10 days. Aliquots were taken at pre-determined time intervals (t=0, 1, 2, 4, 7, 10 days) and analysed by LC/MS for the release of free MMAE.

[4] = In vitro metabolic stability (release of free MMAE, LC/MS), mouse plasma; type: in vitro ADME; conditions: 1 μM, 37° C., 10 days
Protocol: as §1, §2

## CCNC(=O)[C@@H]1CCCN1C(=O)[C@H](CCCNC(=N)N)NC(=O)[C@H](CC(C)C)NC(=O)[C@@H](CCCCNC1CC(=O)N(CCCCCC(=O)N[C@H](C(=O)N[C@@H](CCCNC(N)=O)C(=O)Nc2ccc(COC(=O)N(C)[C@H](C(=O)N[C@H](C(=O)N(C)[C@@H]([C@@H](C)CC)[C@@H](CC(=O)N3CCC[C@H]3[C@H](OC)[C@@H](C)C(=O)N[C@H](C)[C@@H](O)c3ccccc3)OC)C(C)C)C(C)C)cc2)C(C)C)C1=O)NC(=O)[C@H](Cc1ccc(O)cc1)NC(=O)[C@H](CO)NC(=O)[C@H](Cc1c[nH]c2ccccc12)NC(=O)[C@H](Cc1c[nH]cn1)NC(=O)[C@@H]1CCC(=O)N1 (stereo partly shown) [LD5-mc-vc-PABC-MMAE]
LHRH-R; MDA-MB-231, 1 μM
  binding affinity to LHRH receptors (DuoLink assay): high binding affinity
LHRH-R; fixed MDA-MB-231 cells, qualitative
  interaction between LHRH-R and LHRH (PLA signal): confirmed interactions between LHRH-R and its ligand
MDA-MB-231 [1]
  intracellular uptake: significantly higher uptake
MDA-MB-231 [2]
  uptake after silencing the LHRH-R gene: significantly reduced
[3]
  total drug released as MMAE: less than 3%
[3]; listed as LHRHD-(mc-vc-PABC)-MMAE
  total drug released as MMAE: around 3%
[4]
  total drug released as MMAE: less than 5%
